In PubChem BioAssay (NCI):
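48-hour exposure; five concentrations; linearly interpolated endpoints. GI50 marks 50% less growth. The concentration for full growth arrest is given as TGI.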

Columns and labels:
Assay in all cases: NCI tumour cell line growth inhibition, 48 h
[1] = tested on: HOP-62 NSCLC
[2] = tested on: HT29 colon
[3] = tested on: U251 CNS
[4] = tested on: BT-549 breast
[5] = tested on: UO-31 renal
[6] = tested on: MOLT-4 leukemia
[7] = tested on: T-47D breast
[8] = tested on: SN12C renal
[9] = tested on: KM12 colon
[10] = tested on: NCI-H460 lung
[11] = tested on: NCI-H23 lung
[12] = tested on: OVCAR-3 ovarian
[13] = tested on: HCT-116 colon
[14] = tested on: SK-MEL-28 melanoma
[15] = tested on: HS 578T breast
[16] = tested on: SR leukemia
[17] = tested on: SK-MEL-2 melanoma
[18] = tested on: MDA-MB-435
[19] = tested on: A549 NSCLC
[20] = tested on: IGROV1 ovarian
[21] = tested on: HCC-2998 colon
[22] = tested on: LOX IMVI melanoma
[23] = tested on: SF-295 CNS
[24] = tested on: TK-10 renal
[25] = tested on: SW-620 colon
[26] = tested on: PC-3 prostate
[27] = tested on: NCI-H226 lung
[28] = tested on: COLO 205 colon
[29] = tested on: HOP-92 NSCLC

For `C/C(=N\Nc1ccc(S(N)(=O)=O)cc1)c1ccc(N=Nc2c(Nc3ccccc3)[nH][nH]c2=O)cc1`, the GI50 [1] was 2.05 µM, the TGI [1] was 6 µM and the GI50 [2] was 3.58 µM. The TGI [2] was 11.6 µM, the GI50 [3] was 1.88 µM and the TGI [3] was 3.76 µM. For the same molecule, the GI50 [4] was 2.83 µM, the TGI [4] was 9.66 µM and the GI50 [5] was 19.4 µM. For the same molecule, the TGI [5] was > 100 µM, the GI50 [6] was 1.64 µM and the TGI [6] was 5.24 µM. The GI50 [7] was 2.22 µM, the TGI [7] was 5.92 µM and the GI50 [8] was 2.38 µM. For the same molecule, the TGI [8] was 6.58 µM, the GI50 [9] was 2.66 µM and the TGI [9] was 8.95 µM. It also gave a GI50 [10] of 3.21 µM, a TGI [10] of 11.1 µM and a GI50 [11] of 2.54 µM. For the same molecule, the TGI [11] was 6.53 µM, the GI50 [12] was 1.87 µM and the TGI [12] was 4.54 µM. The GI50 [13] was 3.04 µM, the TGI [13] was 10.3 µM and the GI50 [14] was 1.91 µM. The TGI [14] was 3.65 µM, the GI50 [15] was 3.31 µM and the TGI [15] was 19.4 µM. The GI50 [16] was 1.74 µM, the TGI [16] was 5.33 µM and the GI50 [17] was 2.11 µM. The TGI [17] was 4.38 µM, the GI50 [18] was 2.07 µM and the TGI [18] was 5.03 µM. For the same molecule, the GI50 [19] was 19.4 µM, the TGI [19] was > 100 µM and the GI50 [20] was 4.5 µM. It also gave a TGI [20] of 17.6 µM, a GI50 [21] of 2.29 µM and a TGI [21] of 6.08 µM. For the same molecule, the GI50 [22] was 2.13 µM, the TGI [22] was 4.33 µM and the GI50 [23] was 3.67 µM. The TGI [23] was 13.6 µM, the GI50 [24] was 18.6 µM and the TGI [24] was 56.8 µM. It also gave a GI50 [25] of 3.18 µM, a TGI [25] of 12.6 µM and a GI50 [26] of 3.06 µM. It also gave a TGI [26] of 11.3 µM, a GI50 [27] of 3.31 µM and a TGI [27] of 12.3 µM. For the same molecule, the GI50 [28] was 3.28 µM, the TGI [28] was 12 µM and the GI50 [29] was 1.3 µM. For the same molecule, the TGI [29] was 6.55 µM.
